Assays:
Experiment in all cases: KINOMEscan selectivity profiling
Type in all cases: binding
[1] = target: T1, TAOK1 (Homo sapiens, UniProt Q7L7X3); conditions: remaining relative to controls, read-out: %Ctrl @ 10 μM (TAOK1)
T1 construct: purchased Ambit Biosciences Cooperation, San Diego, USA (KINOMEscan service)
Procedure: (§1) KINOMEscan™ was performed to determine binding constants of coumpound 5 to 442 eukaryotic kinases by Ambit Biosciences Cooperation, San Diego, USA.

[2] = target: T2, CLK1 (Homo sapiens, UniProt P49759); conditions: remaining relative to controls, read-out: %Ctrl @ 10 μM (CLK1)
T2 construct: purchased Ambit Biosciences Cooperation, San Diego, USA (KINOMEscan)
Procedure: as §1

[3] = target: T3, PIP5K2C (Homo sapiens, UniProt Q8TBX8); conditions: remaining relative to controls, read-out: %Ctrl @ 10 μM (PIP5K2C)
T3 construct: purchased Ambit Biosciences Cooperation, San Diego, USA (KINOMEscan)
Procedure: as §1

[4] = target: T4, CSNK1E (Homo sapiens, UniProt P49674); conditions: remaining relative to controls, read-out: %Ctrl @ 10 μM (CSNK1E)
T4 construct: purchased Ambit Biosciences Cooperation, San Diego, USA (KINOMEscan)
Procedure: as §1

[5] = target: T5, SLK (Homo sapiens, UniProt Q9H2G2); conditions: remaining relative to controls, read-out: %Ctrl @ 10 μM (SLK)
T5 construct: purchased Ambit Biosciences Cooperation, San Diego, USA (KINOMEscan)
Procedure: as §1

[6] = target: T6, CSNK1G2 (Homo sapiens, UniProt P78368); conditions: remaining relative to controls, read-out: %Ctrl @ 10 μM (CSNK1G2)
T6 construct: purchased Ambit Biosciences Cooperation, San Diego, USA (KINOMEscan)
Procedure: as §1

[7] = target: T7, CSNK1A1L (Homo sapiens, UniProt Q8N752); conditions: remaining relative to controls, read-out: %Ctrl @ 10 μM (CSNK1A1L)
T7 construct: purchased Ambit Biosciences Cooperation, San Diego, USA (KINOMEscan)
Procedure: as §1

[8] = target: T8, FLT3(D835H) (Homo sapiens, UniProt P36888, D835H); conditions: remaining relative to controls, read-out: %Ctrl @ 10 μM (FLT3(D835H))
T8 construct: purchased Ambit Biosciences Cooperation, San Diego, USA (KINOMEscan)
Procedure: as §1

[9] = target: T9, CSNK1G3 (Homo sapiens, UniProt Q9Y6M4); conditions: remaining relative to controls, read-out: %Ctrl @ 10 μM (CSNK1G3)
T9 construct: purchased Ambit Biosciences Cooperation, San Diego, USA (KINOMEscan)
Procedure: as §1

[10] = target: T10, CLK2 (Homo sapiens, UniProt P49760); conditions: remaining relative to controls, read-out: %Ctrl @ 10 μM (CLK2)
T10 construct: purchased Ambit Biosciences Cooperation, San Diego, USA (KINOMEscan)
Procedure: as §1

[11] = target: T11, TAOK3 (Homo sapiens, UniProt Q9H2K8); conditions: remaining relative to controls, read-out: %Ctrl @ 10 μM (TAOK3)
T11 construct: purchased Ambit Biosciences Cooperation, San Diego, USA (KINOMEscan service)
Procedure: as §1

[12] = target: T12, CLK4 (Homo sapiens, UniProt Q9HAZ1); conditions: remaining relative to controls, read-out: %Ctrl @ 10 μM (CLK4)
T12 construct: purchased Ambit Biosciences Cooperation, San Diego, USA (KINOMEscan)
Procedure: as §1

[13] = target: T13, DYRK2 (Homo sapiens, UniProt Q92630); conditions: remaining relative to controls, read-out: %Ctrl @ 10 μM (DYRK2)
T13 construct: purchased Ambit Biosciences Cooperation, San Diego, USA (KINOMEscan)
Procedure: as §1

[14] = target: T14, CSNK1A1 (Homo sapiens, UniProt P48729); conditions: remaining relative to controls, read-out: %Ctrl @ 10 μM (CSNK1A1)
T14 construct: purchased Ambit Biosciences Cooperation, San Diego, USA (KINOMEscan)
Procedure: as §1

[15] = target: T15, CSNK1D (Homo sapiens, UniProt P48730); conditions: remaining relative to controls, read-out: %Ctrl @ 10 μM (CSNK1D)
T15 construct: purchased Ambit Biosciences Cooperation, San Diego, USA (KINOMEscan)
Procedure: as §1

[16] = target: T16, DYRK1A (Homo sapiens, UniProt Q13627); conditions: remaining relative to controls, read-out: %Ctrl @ 10 μM (DYRK1A)
T16 construct: purchased Ambit Biosciences Cooperation, San Diego, USA (KINOMEscan)
Procedure: as §1

[17] = target: T17, DYRK1B (Homo sapiens, UniProt Q9Y463); conditions: remaining relative to controls, read-out: %Ctrl @ 10 μM (DYRK1B)
T17 construct: purchased Ambit Biosciences Cooperation, San Diego, USA (KINOMEscan)
Procedure: as §1

[18] = target: T18, CLK3 (Homo sapiens, UniProt P49761); conditions: remaining relative to controls, read-out: %Ctrl @ 10 μM (CLK3)
T18 construct: purchased Ambit Biosciences Cooperation, San Diego, USA (KINOMEscan)
Procedure: as §1

T9 sequence (Q9Y6M4 whole entry): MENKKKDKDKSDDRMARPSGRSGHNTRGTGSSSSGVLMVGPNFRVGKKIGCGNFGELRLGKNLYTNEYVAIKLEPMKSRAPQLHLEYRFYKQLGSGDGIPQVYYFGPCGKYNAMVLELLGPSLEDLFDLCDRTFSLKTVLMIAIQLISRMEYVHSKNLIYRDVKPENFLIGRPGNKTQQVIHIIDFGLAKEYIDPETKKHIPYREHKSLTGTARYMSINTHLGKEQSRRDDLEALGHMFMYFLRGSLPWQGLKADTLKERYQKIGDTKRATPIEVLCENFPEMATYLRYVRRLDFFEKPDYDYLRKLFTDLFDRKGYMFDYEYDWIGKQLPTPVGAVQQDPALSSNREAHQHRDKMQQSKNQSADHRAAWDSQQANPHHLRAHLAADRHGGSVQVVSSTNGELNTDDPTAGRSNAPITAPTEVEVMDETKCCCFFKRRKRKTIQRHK
T10 sequence (P49760 whole entry): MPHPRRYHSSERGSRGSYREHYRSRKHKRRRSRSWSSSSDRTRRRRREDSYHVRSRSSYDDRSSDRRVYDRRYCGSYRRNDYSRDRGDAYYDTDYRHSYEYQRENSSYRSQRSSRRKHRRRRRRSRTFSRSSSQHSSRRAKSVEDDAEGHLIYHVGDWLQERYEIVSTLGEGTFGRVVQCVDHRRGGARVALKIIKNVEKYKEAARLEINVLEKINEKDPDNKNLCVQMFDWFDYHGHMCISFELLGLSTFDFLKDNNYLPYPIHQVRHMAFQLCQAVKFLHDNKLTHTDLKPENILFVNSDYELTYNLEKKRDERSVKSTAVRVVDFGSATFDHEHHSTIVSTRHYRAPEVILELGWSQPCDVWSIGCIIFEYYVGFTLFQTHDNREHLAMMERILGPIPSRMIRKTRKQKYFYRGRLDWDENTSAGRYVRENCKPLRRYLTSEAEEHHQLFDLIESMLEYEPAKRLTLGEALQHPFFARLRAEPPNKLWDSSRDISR
T6 sequence (P78368 whole entry): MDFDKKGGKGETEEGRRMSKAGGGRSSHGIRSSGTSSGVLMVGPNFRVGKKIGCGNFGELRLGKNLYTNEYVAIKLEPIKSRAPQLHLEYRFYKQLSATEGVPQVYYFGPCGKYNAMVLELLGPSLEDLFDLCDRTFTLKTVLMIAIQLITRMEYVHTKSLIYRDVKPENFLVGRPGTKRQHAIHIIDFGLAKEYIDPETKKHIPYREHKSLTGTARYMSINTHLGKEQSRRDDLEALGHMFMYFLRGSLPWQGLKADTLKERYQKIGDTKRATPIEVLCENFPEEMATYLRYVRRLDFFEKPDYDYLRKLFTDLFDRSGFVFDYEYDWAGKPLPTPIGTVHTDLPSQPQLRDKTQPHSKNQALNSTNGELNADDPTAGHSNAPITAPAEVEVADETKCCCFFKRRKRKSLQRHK
T13 sequence (Q92630 whole entry): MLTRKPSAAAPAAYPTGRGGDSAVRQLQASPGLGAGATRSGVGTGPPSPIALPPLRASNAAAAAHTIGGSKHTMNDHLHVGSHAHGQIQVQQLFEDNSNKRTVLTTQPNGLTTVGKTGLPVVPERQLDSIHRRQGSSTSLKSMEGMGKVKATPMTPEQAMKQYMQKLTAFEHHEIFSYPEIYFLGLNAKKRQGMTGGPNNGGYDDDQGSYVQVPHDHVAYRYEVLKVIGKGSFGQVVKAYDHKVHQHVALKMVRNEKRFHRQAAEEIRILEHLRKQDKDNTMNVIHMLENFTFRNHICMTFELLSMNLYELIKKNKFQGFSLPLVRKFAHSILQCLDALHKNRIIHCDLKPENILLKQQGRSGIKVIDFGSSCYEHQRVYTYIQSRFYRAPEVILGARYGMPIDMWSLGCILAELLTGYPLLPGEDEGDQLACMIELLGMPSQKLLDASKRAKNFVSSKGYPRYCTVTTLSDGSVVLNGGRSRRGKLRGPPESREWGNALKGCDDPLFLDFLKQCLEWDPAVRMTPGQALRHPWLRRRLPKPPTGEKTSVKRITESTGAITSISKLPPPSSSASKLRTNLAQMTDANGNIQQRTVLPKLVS
T3 sequence (Q8TBX8 whole entry): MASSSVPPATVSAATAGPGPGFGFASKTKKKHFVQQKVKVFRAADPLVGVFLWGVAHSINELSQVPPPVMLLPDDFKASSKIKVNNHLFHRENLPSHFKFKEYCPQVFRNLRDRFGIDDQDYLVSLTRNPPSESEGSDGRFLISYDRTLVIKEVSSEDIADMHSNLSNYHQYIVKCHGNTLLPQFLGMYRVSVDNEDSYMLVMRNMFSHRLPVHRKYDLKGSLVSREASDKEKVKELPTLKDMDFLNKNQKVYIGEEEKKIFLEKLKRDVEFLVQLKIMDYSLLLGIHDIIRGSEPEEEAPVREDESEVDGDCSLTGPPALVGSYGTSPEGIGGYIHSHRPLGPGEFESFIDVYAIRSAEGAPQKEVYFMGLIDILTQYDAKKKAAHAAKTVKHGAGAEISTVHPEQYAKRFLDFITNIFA
T17 sequence (Q9Y463 whole entry): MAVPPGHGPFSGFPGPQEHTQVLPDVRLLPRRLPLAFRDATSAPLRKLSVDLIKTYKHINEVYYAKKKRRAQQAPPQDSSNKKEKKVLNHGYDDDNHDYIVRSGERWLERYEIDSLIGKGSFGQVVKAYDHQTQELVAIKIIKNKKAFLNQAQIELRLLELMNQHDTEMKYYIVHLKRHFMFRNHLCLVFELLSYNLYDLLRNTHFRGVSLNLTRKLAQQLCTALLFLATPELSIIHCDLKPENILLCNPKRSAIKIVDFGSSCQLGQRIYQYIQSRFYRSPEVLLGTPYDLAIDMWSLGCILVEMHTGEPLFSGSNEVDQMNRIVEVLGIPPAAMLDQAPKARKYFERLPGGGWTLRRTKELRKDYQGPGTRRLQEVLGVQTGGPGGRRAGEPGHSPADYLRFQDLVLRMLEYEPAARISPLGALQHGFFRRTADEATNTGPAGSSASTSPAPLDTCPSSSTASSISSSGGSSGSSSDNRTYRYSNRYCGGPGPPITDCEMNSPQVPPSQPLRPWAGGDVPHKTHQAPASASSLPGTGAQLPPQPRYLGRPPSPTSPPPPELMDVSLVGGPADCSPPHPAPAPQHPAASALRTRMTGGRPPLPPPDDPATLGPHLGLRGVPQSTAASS
T1 sequence (Q7L7X3 whole entry): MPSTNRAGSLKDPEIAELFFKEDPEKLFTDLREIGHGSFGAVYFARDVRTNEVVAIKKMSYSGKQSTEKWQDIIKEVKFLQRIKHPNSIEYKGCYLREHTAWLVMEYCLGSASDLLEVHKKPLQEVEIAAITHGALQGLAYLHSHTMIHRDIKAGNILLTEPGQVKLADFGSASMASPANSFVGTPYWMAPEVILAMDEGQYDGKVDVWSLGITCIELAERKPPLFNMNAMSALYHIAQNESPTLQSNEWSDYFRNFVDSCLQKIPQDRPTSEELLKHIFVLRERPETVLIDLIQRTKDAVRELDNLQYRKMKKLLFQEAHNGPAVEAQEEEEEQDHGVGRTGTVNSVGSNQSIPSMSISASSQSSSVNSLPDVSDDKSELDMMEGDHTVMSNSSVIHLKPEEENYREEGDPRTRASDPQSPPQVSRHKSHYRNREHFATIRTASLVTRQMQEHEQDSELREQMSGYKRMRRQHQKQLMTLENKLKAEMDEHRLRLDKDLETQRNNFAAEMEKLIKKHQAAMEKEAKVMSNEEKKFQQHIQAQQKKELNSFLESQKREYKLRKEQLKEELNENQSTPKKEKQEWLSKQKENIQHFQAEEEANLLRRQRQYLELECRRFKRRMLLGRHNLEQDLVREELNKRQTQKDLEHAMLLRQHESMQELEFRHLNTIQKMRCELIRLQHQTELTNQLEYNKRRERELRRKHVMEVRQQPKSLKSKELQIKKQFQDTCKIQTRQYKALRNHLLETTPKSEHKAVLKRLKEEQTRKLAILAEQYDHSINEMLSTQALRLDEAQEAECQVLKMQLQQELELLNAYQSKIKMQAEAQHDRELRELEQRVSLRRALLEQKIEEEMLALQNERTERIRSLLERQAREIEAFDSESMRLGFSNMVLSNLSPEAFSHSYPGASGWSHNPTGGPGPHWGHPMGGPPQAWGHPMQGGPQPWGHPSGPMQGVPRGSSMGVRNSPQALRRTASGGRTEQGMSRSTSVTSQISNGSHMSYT
T14 sequence (P48729 whole entry): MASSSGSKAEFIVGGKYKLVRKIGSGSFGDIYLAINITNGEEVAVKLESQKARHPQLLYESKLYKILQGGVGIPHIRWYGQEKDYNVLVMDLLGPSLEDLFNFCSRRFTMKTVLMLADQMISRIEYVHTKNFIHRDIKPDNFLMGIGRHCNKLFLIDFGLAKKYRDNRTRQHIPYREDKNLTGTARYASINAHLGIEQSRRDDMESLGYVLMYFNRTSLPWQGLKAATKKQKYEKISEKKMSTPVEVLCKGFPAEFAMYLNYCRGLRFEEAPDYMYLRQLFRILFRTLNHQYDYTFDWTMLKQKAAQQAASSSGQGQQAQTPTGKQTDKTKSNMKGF
T18 sequence (P49761 whole entry): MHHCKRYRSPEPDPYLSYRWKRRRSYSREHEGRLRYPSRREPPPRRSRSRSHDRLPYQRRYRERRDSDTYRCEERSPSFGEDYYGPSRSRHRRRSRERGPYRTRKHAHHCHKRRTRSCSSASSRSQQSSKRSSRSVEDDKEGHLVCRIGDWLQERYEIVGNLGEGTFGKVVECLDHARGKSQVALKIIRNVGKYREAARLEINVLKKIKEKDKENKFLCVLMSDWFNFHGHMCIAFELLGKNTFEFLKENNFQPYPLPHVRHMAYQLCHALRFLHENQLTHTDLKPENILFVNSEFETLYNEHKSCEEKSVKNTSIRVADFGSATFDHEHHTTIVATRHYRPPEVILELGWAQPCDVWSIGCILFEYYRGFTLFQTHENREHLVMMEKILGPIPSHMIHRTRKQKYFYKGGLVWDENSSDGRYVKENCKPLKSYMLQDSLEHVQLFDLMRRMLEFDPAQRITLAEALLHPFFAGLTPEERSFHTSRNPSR

remaining binding at 10 µM [1]: 24% | remaining binding at 10 µM [2]: 2.6% | remaining binding at 10 µM [3]: 9.6% | remaining binding at 10 µM [4]: 0.35% | remaining binding at 10 µM [5]: 12% | remaining binding at 10 µM [6]: 9.9% | remaining binding at 10 µM [7]: 1% | remaining binding at 10 µM [8]: 25% | remaining binding at 10 µM [9]: 31% | remaining binding at 10 µM [10]: 10% | remaining binding at 10 µM [11]: 20% | remaining binding at 10 µM [12]: 7.2% | remaining binding at 10 µM [13]: 17% | remaining binding at 10 µM [14]: 3% | remaining binding at 10 µM [15]: 2% | remaining binding at 10 µM [16]: 4.1% | remaining binding at 10 µM [17]: 6.6% | remaining binding at 10 µM [18]: 20%
SMILES: O=C(Nc1nc2ccc(C(F)(F)F)cc2[nH]1)c1csc(NC(=O)c2ccccc2OC(F)(F)F)n1 [Compound 5, 2-(2-(Trifluoromethoxy)benzamido)-N-(6-(trifluoromethyl)-1H-benzo[d]imidazol-2-yl)thiazole-4-carboxamide]

Reference: article PMC3448056, “2-Benzamido-N-(1H-benzo[d]imidazol-2-yl)thiazole-4-carboxamide derivatives as potent inhibitors of CK1δ/ε” (Amino Acids, 2012)
